Patent US20220401385A1, “Combination Therapy Based on PD-1 Signaling Inhibitors” (Kyoto University, priority 2019, published 2022)
“Also recorded” adds a separate entry of the source.

How the values were obtained:
[1] = tested on: draining lymph node CD8+ T cells; assay: Seahorse OCR/ECAR of draining lymph node CD8+ T cells of treated mice; type: in vivo, C57BL/6 mice; settings: combined therapy compared to PD-1 inhibition alone
Protocol: FIG. 2-1 a) Treated mice were analyzed for draining lymph nodes and the inside of tumor. Briefly, draining lymph nodes of mice were isolated 13 days after tumor inoculation, and stained with antibodies to CD8 and Sca-1. FACS diagram and percentages of Sca-1^+ cells in CD8^+ T cells are shown. b) CD8^+ T cells in isolated draining lymph nodes were stimulated with CD3/CD28 antibody beads. After 24 hours, cell proliferation was examined by means of ^3H uptake. At the same time, IFN-γ concentration in culture supernatant was measured. c) Tumor from the same mice as described above was treated with collagenase. Then, expression rates of PD-1 and Tim3 in tumor-infiltrating CD8^+ T cells were analyzed. d) Oxygen consumption rate (OCR) and extracellular acidification rate (ECAR) of draining lymph node CD8^+ T cells were measured with a Seahorse analyzer (N=3 wells). For statistical analysis, ANOVA was used. * p<0.05, ** p<0.01, *** p<0.001, **** p<0.0001.
Oxygen consumption rates were measured using an XF96 Extracellular Flux Analyzer (Seahorse Bioscience). CD8^+ T cells (4×10^5) per well were seeded in a determined XF96 plate. The four chemical modulators of mitochondrial oxidative phosphorylation, which came with an XF Cell Mito Stress Test Kit (Seahorse Bioscience), were added to the module sequentially. In brief, basal OCR measurement was performed […] sequential addition of oligomycin, FCCP, and rotenone/antimycin A. SRC and ATP production rates were calculated by the following formulas:
SRC (pmo; 02/min)=OCRmaximal−OCRbasal
mitoATP (pmol ATP/min)=(OCRbasal−OCRoligo)×5.5.

CD44 high CD8+ T cells [2] = assay: PI and Annexin apoptosis assay, CD44 high cells; type: cell-based, mice; settings: in the presence of SPD 0.2 μM
Protocol: FIG. 4 CD8^+ T cells were isolated from the spleen of mice without tumor inoculation, and further isolated into CD44^+ (CD44 high) and CD44^− (CD44 low) cell populations. a) CD44 low cells were simulated with CD3/CD28 antibody beads and SPD (0.2 μM). After 30 minutes, 1 hour, 2 hours and 72 hours, OCR was measured with a Seahorse analyzer. b) At the same time, total ATP production and glycolytic pathway-derived or mitochondrial activity-derived ATP production were calculated at 30-minute, 1-hour and 2-hour. c) CD44 low cells (2×10^5 cells) were stimulated with CD3/CD28 antibody beads and SPD (0.2 μM). After 24 hours, cell proliferation was examined by means of 3H uptake. d) Spare respiratory capacity (SRC) was calculated from the OCR measurement after 72 hours in a), and results with and without SPD were compared. e) CD44 low cells were stimulated with CD3/CD28 antibody beads and SPD (0.2 μM). After 24 hours, frequencies between apoptotic and viable cells were calculated by PI and Annexin staining. f-j) CD44 high cells were analyzed under the same conditions and by the same methods as described in a-e) above. […] All flow cytometry experiments were performed on FACS Canto II (BD Biosciences) and analyzed using FlowJo software (FLOWJO, LLC). […]

CD44 high CD8+ T cells [3] = assay: Observation of mitochondria under electron microscope, CD44 high cells; type: cell-based, mice; settings: SPD 0.2 μM, 1 hour
Protocol: (§1) FIG. 5 CD8^+ T cells were isolated from the spleen of mice without tumor inoculation, and further isolated into CD44^+ (CD44 high) and CD44^− (CD44 low) cell populations. a) CD44 low cells were simulated with CD3/CD28 antibody beads and SPD (0.2 μM). […] Protein expression levels after 1 hour and 2 hours were confirmed by western blotting with the respective indicated antibodies. As regards statistical analysis, t-test was used for comparison of two groups. * p<0.05, ** p<0.01, *** p<0.001, **** p<0.0001.
CD8^+ T cells (2×10^5) were stimulated with 0.2 μM spermidine for 1 hour. Then, cells were harvested, embedded in Ipgell (GenoStaff) and fixed with 4% paraformaldehyde and 2% glutaraldehyde. Images were taken with a transmission electron microscope (TEM). Mitochondrial size was determined with ImageJ software. As regards mitochondrial number, average numbers in single cell were determined with Prism software. Blind testing was used for observation and analysis of mitochondria.

AMPK and mTOR signaling = assay: Western blotting of AMPK and mTOR signaling, CD44 high cells; type: cell-based, mice; settings: SPD 0.2 μM, 1 hour and 2 hours
Protocol: as §1
CD8^+ T cells were isolated using mouse CD8 Microbeads (Miltenyi Biotec or Mojo). After washing with PBS twice, 2×10^6 cells were solubilized in a lysis buffer containing 30 mM Tris-HCl (pH. 7.4), 150 mM NaCl, 10% glycerol, 0.1% SDS, 1% Triton-X-100, 0.05% Na-Doc, 5 mM EDTA (pH. 8.0), protease inhibitor mixture (Roche Molecular Biochemicals) and phosphatase inhibitors (Nacalai Tesque). After measurement of protein concentrations by DC protein assay (Bio-Rad), 4 μg of proteins was mounted on 4 to 20% gradient Mini-PROTEAN TGX Gels (Bio-Rad) and electroblotted onto nitrocellulose membranes, which were then incubated in a blocking buffer of TBS containing 1% BSA. Primary antibody incubations were carried out overnight at 4° C. in blocking buffer. After washing, secondary antibody incubations were carried out at room temperature for 40 min in blocking buffer. […]

Compound: NCCCCNCCCN [SPD, spermidine]
- glycolysis (ECAR) of CD8+ T cells [1]: increased
- oxygen consumption (OCR) of CD8+ T cells [1]: increased
- spare respiratory capacity (SRC) of CD8+ T cells [1]: increased
- apoptotic cells (CD44 high CD8+ T cells [2]): decreased
- viable cells (CD44 high CD8+ T cells [2]): increased; also recorded: significantly high
- mitochondrial morphology (CD44 high CD8+ T cells [3]): fusion of mitochondria
- number of mitochondria per cell (CD44 high CD8+ T cells [3]): decreased
- size per mitochondrion (CD44 high CD8+ T cells [3]): increased
- structure of cristae (CD44 high CD8+ T cells [3]): damaged in structures
- expression levels of pAMPK and its downstream molecules (pACC, pPKCa) (AMPK and mTOR signaling): markedly high
